From patent US20200197418A1, “COMPOUNDS FOR THE TREATMENT OF DISEASES CAUSED BY OXALATE ACCUMULATION” (UNIVERSIDAD DE GRANADA, priority 2017, published 2020)
Read-outs that look alike come from different tables or passages of the source. Marks after values point to notes of the source that are not given here.

Assays:
[1] = tested on: Agxt1-KO mouse hepatocyte cultures; assay: Oxalate reduction assay in primary hepatocyte cultures from hyperoxaluric mice, glycolate-loaded; format: cell-based; details: for Relative oxalate at 10 μM: compound at 10 μM, Agxt1-/- mouse hepatocytes with 5 mM glycolate, mean ± standard deviation; for EC50: Agxt1-KO mouse hepatocytes, 5 mM glycolate
Experimental: Isolation and culture of hepatocytes: The isolation of hepatocytes from AGT enzyme-deficient mice was carried out as described in the literature. A total of 3.0×10^5 cells/well were then cultured in 6-well plates in William's E medium supplemented with foetal bovine serum (5%), I-glutamine (2 mM), penicillin (100 U/ml), streptomycin (100 μg/ml), insulin (2.2 mIU/ml) and hydrocortisone (0.3 μg/ml). After 5 h, the medium was switched to serum-free complete William's E medium (Biochrom, Cambridge, UK), and the cells were treated with increasing concentrations of each of the drugs in the presence of 5 mM glycolate. Samples of the culture medium were collected at 24, 48 and 72 h after treatment, to quantify oxalate.
Determination of oxalate: The determination of oxalate excreted into the medium was carried out by assaying in the presence of oxalate oxidase using a commercial kit (Trinity Biotech, Co Wicklow, Ireland), following the manufacturer's indications. GraphPad Prism 5 software was used for the graphical representation of the data as the mean±SD.
The efficacy of reducing oxalate production was measured in primary hepatocyte cultures obtained from hyperoxaluric mice (Agxt1^−/−). Cultures of less than 5 days were used to prevent possible interferences due to cell differentiation. For the short-term increase in the production of oxalate in cells and for obtaining detectable levels in standard enzymatic assays, glycolate was added to the culture medium at a concentration of 5 mM. Firstly, the viability of the hepatocytes treated with increasing concentrations of each drug up to 200 μM in the presence of glycolate was tested in comparative assays with control hepatocytes not treated with a drug and at different times.
Oxalate reduction assays were then carried out. Samples of the culture medium were taken every 24 hours after treatment with each of the compounds under evaluation. In each of these samples was measured the concentration of oxalate excreted into the medium by Agxt1^−/− hepatocytes. The determination of oxalate in the samples was carried out using a colorimetric enzymatic assay based on two consecutive reactions catalysed by the enzymes oxalate oxidase and peroxidase, respectively.

[2] = tested on: mice with PH-1 (Agxt1-KO); details: cited from earlier work
[3] = Hepatocyte, 24 h after treatment, read-out: EC50 (24 h), reduced production of oxalate
[4] = Hepatocyte, 48 h after treatment, read-out: EC50 (48 h), reduced production of oxalate
[5] = Hepatocyte, 72 h after treatment, read-out: EC50 (72 h), reduced production of oxalate

SMILES	Relative oxalate at 10 μM [1]	also measured
O=C(O)c1cc(-c2ccoc2)ccc1O	0.89 ± 0.16	
Oc1ccc(-c2ccoc2)cc1O	1.02 ± 0.3	
O=Cc1ccc(-c2ccc(C(=O)O)c(O)c2)o1	0.88 ± 0.18	
COc1cc(-c2ccc(C=O)o2)ccc1C(=O)O	0.82 ± 0.04	
O=C(O)c1cc([N+](=O)[O-])c(-c2ccco2)cc1O	0.86 ± 0.04	
O=C(O)c1ccc(-c2ccc(CO)o2)cc1O	0.88 ± 0.01	
O=C(O)c1cc(-c2ccc(CO)o2)ccc1O	0.88 ± 0.19	
CC(=O)c1ccc(-c2ccc(C(=O)O)c(O)c2)s1	0.89 ± 0.14	
O=C(O)c1cc(-c2cccs2)ccc1O	0.82 ± 0.01	
O=C(O)c1ccc(-c2cccs2)cc1O	0.74 ± 0.16	
O=C(O)c1ccc(-c2ccncc2)cc1O	0.88 ± 0.03	
COc1cccc(-c2ccc(C(=O)O)c(O)c2)c1	0.83 ± 0.03	
O=C(O)c1ccc(-c2ccc(O)cc2)cc1O	0.82 ± 0.01	
O=C(O)c1cc(-c2ccc(F)cc2F)ccc1O	0.88 ± 0.08	
O=C(O)c1cc(-c2ccc(OCc3ccccc3)cc2)ccc1O	0.8 ± 0.16	
COc1ccc(COc2ccc(-c3ccc(C(=O)O)c(O)c3)cc2)cc1	0.90 ± 0.16	
O=C(O)c1ccc(-c2ccccc2COc2cc(F)cc(F)c2)cc1O	0.72 ± 0.16	
O=C(O)c1ccc(-c2ccccc2COc2cccc(C(F)(F)F)c2)cc1O	0.62 ± 0.29	
O=C(O)c1cc(-c2ccccc2COc2cccc(C(F)(F)F)c2)ccc1O	0.68 ± 0.21	
N.O=C(O)c1cc(-c2ccc(CNc3ccc(Br)cc3)o2)ccc1O	0.373 ± 0.063	
C#CCCCC(=O)Nc1ccc(C(=O)c2ccc(NCc3ccc(-c4ccc(O)c(C(=O)O)c4)o3)cc2)cc1.N	0.144 ± 0.322	
N.O=C(O)c1cc(-c2ccc(CNc3ccc([N+](=O)[O-])cc3)o2)ccc1O	−0.236 ± 0.115	
O=C(O)c1nnsc1Sc1ccc(Cl)cc1 [CCPST, reference compound]		EC50 ([1]; 24 h after treatment, read-out: EC50 (24 h), reduced production of oxalate): 25.3 µM; EC50 ([1]; 48 h after treatment, read-out: EC50 (48 h), reduced production of oxalate): 32.9 µM; EC50 ([1]; 72 h after treatment, read-out: EC50 (72 h), reduced production of oxalate): 33.9 µM; effectiveness in reducing oxalate levels [2]: reducing oxalate levels
O=C(O)c1ccc(-c2ccco2)cc1O [Compound 73, 4-(2-furyl)-2-hydroxybenzoic acid]		EC50 [1, 3]: 9.35 µM; EC50 [1, 4]: 92.2 µM
O=C(O)c1cc(-c2ccco2)ccc1O [Compound 74, 5-(2-furyl)-2-hydroxybenzoic acid]		EC50 [1, 3]: 3.59 µM; EC50 [1, 4]: 7.88 µM; EC50 [1, 5]: 9.2 µM
O=Cc1ccc(-c2ccc(O)c(C(=O)O)c2)o1 [Compound 78, 5-(5-formyl-2-furyl)-2-hydroxybenzoic acid]		EC50 [1, 3]: 3.45 µM; EC50 [1, 4]: 8.36 µM; EC50 [1, 5]: 11.2 µM
O=C(O)c1ccc(-c2ccco2)cc1O [drawing 12]	0.87 ± 0.15	
O=C(O)c1cc(-c2ccco2)ccc1O [drawing 13]	−0.25 ± 0.2	
O=Cc1ccc(-c2ccc(O)c(C(=O)O)c2)o1 [drawing 17]	−0.06 ± 0.29^a	
